Laboratory results reported in patent US10316017B2, “COT modulators and methods of use thereof” (Gilead Sciences, Inc., priority 2015, dated 2019).
Like-named read-outs stand apart in the source and are kept apart here.

Tests used:
[1] = system: TNFα production in LPS-stimulated human monocytes; test: Cot Monocyte TNFα Cell Based Assay; conditions: Homo sapiens, Monocyte, read-out: EC50 TNF
Outline: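 Cells at 5,000/well were pretreated with compound for 1 h at 37 °C (0.5% DMSO final), then stimulated with 50 pg/ml LPS for 4 h at 37 °C. Supernatant TNFα was measured by two-antibody TR-FRET after overnight room-temperature incubation; values are percent of control between unstimulated and stimulated wells.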

[2] = target: T1, human Cot catalytic domain (30-397 amino acids) (Homo sapiens, UniProt P41279); test: High Throughput Cot Biochemical Assay (KinEASE TR-FRET); conditions: read-out: IC50 HTRF
T1 construct: Purified recombinant human Cot catalytic domain (30-397 amino acids) was purchased from Cama Biosciences; purchased Cama Biosciences (so in the source)
T1 sequence (P41279 30-397): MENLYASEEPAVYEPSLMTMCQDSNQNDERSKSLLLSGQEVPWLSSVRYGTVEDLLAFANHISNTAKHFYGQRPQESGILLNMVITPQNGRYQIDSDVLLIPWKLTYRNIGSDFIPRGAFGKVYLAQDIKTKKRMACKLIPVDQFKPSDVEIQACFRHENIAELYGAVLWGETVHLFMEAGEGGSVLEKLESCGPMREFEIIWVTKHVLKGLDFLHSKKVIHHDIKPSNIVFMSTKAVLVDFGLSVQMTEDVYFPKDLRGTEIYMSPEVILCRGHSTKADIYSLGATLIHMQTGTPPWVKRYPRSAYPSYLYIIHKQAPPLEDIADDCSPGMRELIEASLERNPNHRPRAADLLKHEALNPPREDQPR
Outline: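 Reaction of 5 nM recombinant human Cot catalytic domain (aa 30-397) with 1 μM STK3 peptide (XL665-labeled) and 400 μM ATP in 10 mM MOPS pH 7.0, 10 mM MgOAc, 1 mM DTT, 0.5 mg/mL BSA, 0.1% DMSO. Phosphopeptide detected by TR-FRET with europium anti-phospho antibody.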

[3] = TNFα in LPS-stimulated human monocytes
[4] = Cot KinEASE TR-FRET (HTRF) biochemical assay, 400 μM ATP
[5] = Cot biochemical HTRF (KinEASE TR-FRET) assay
[6] = LPS-stimulated human monocytes, TNFα TR-FRET
[7] = Cot KinEASE TR-FRET, 400 μM ATP

Row | SMILES | EC50 [1, 3] [nM] | IC50 [2, 4] [nM] | IC50 [2, 5] [nM] | EC50 [1, 6] [nM] | IC50 [2, 7] [nM]
1 | CN(C)C(=O)c1cccc([C@H](Nc2cc(Cl)c3ncc(C#N)c(Nc4ccc(F)c(Cl)c4)c3c2)c2cn(C3CCN(C(C)(C)C)CC3)nn2)c1 [Compound 20] | 41 | 1 |  |  | 
2 | [2H]C(Nc1cc(Cl)c2ncc(C#N)c(NC3C4CCCC43)c2c1)(c1ccc(F)cc1)c1cn(C2CC2)nn1 (stereo in doubt) [Example 242, 4-(bicyclo[3.1.0]hexan-6-ylamino)-8-chloro-6-(((S)-(1-cyclopropyl-1H-1,2,3-triazol-4-yl)(4-fluorophenyl)methyl-d)amino)quinoline-3-carbonitrile] | 270 | 8 |  |  | 
3 | [2H][C@](Nc1cc(Cl)c2ncc(C#N)c(NC34CC5CC(CC(C5)C3)C4)c2c1)(c1ccc(F)cc1)c1cn(C2CC2)nn1 [Example 245, 4-(((3R,5R,7R)-adamantan-1-yl)amino)-8-chloro-6-(((S)-(1-cyclopropyl-1H-1,2,3-triazol-4-yl)(4-fluorophenyl)methyl-d)amino)quinoline-3-carbonitrile] | 557 | 46 |  |  | 
4 | CC(C)(C)CNc1c(C#N)cnc2c(Cl)cc(N[C@H](c3cn(C4CC4)nn3)c3ccccc3OC(F)(F)F)cc12 [Example 122, (S)-8-chloro-6-(((1-cyclopropyl-1H-1,2,3-triazol-4-yl)(2-(trifluoromethoxy)phenyl)methyl)amino)-4-(neopentylamino) quinoline-3-carbonitrile] | 201 | 19 |  |  | 
5 | CC(C)(C)CNc1c(C#N)cnc2c(Cl)cc(N[C@H](c3cn(C4CC4)nn3)c3ccc(F)cc3Cl)cc12 [Example 207, (S)-8-chloro-6-(((2-chloro-4-fluorophenyl) (1-cyclopropyl-1H-1,2,3-triazol-4-yl)methyl)amino)-4-(neopentylamino) quinoline-3-carbonitrile] | 305 | 17 |  |  | 
6 | CC[C@@H](Nc1c(C#N)cnc2c(Cl)cc(N[C@@H](c3ccccc3)c3cn(CCCN4CCCC4)nn3)cc12)c1ccccc1 [Example 536, 8-chloro-6-(((S)-phenyl (1-(3-(pyrrolidin-1-yl)propyl)-1H-1,2,3-triazol-4-yl)methyl)amino)-4-(((R)-1-phenylpropyl)amino)quinoline-3-carbonitrile] | 84 |  | 3 |  | 
7 | CC[C@@H](Nc1c(C#N)cnc2c(Cl)cc(N[C@@H](c3ccc(F)cc3)c3cn(C(C)C)nn3)cc12)c1ccccc1C [Example 366, 8-chloro-6-(((S)-(4-fluorophenyl)(1-isopropyl-1H-1,2,3-triazol-4-yl)methyl)amino)-4-(((R)-1-(o-tolyl)propyl)amino)quinoline-3-carbonitrile] | 1300 | 110 |  |  | 
8 | C[C@@H](Nc1c(C#N)cnc2c(Cl)cc(N[C@@H](c3ccccc3)c3cn(C4CCN(C(C)(C)C)CC4)nn3)cc12)C(C)(C)C [Example 485, 6-(((S)-(1-(1-(tert-butyl)piperidin-4-yl)-1H-1,2,3-triazol-4-yl)(phenyl)methyl)amino)-8-chloro-4-(((R)-3,3-dimethylbutan-2-yl)amino) quinoline-3-carbonitrile] | 7240 |  | 306 |  | 

Continued, values first:

Row | EC50 [1, 3] [nM] | IC50 [2, 4] [nM] | IC50 [2, 5] [nM] | EC50 [1, 6] [nM] | IC50 [2, 7] [nM] | SMILES
9 | 12000 |  | 95 |  |  | CC(C)(C)N1CCC(n2cc([C@@H](Nc3cc(Cl)c4ncc(C#N)c(NCCc5ccccc5)c4c3)c3ccc(Cl)cc3)nn2)CC1 [Example 703, (S)-6-(((1-(1-(tert-butyl)piperidin-4-yl)-1H-1,2,3-triazol-4-yl)(4-chlorophenyl)methyl)amino)-8-chloro-4-(phenethylamino)quinoline-3-carbonitrile]
10 | 2060 |  | 64 |  |  | CC(C)(C)N1CCC(n2cc([C@@H](Nc3cc(Cl)c4ncc(C#N)c(NCC5CCOCC5)c4c3)c3ccccc3)nn2)CC1 [Example 601, (S)-6-(((1-(1-(tert-butyl)piperidin-4-yl)-1H-1,2,3-triazol-4-yl)(phenyl)methyl)amino)-8-chloro-4-(((tetrahydro-2H-pyran-4-yl)methyl)amino)quinoline-3-carbonitrile]
11 |  |  |  | 141 | 4 | CC(C)(C)CNc1c(C#N)cnc2c(C#N)cc(N[C@H](c3cn(C4(C#N)CC4)nn3)c3cccc(C#N)c3Cl)cc12 [Example 1027, (S)-6-(((2-chloro-3-cyanophenyl)(1-(1-cyanocyclopropyl)-1H-1,2,3-triazol-4-yl)methyl)amino)-4-(neopentylamino)quinoline-3,8-dicarbonitrile]
12 |  |  |  | 144 | 4 | CC[C@@H](Nc1c(C#N)cnc2c(Br)cc(N[C@@H](c3cccc(-c4ncco4)c3)c3cn(C4CC4)nn3)cc12)c1ccccc1 [Example 940, 8-bromo-6-(((S)-(1-cyclopropyl-1H-1,2,3-triazol-4-yl)(3-(oxazol-2-yl)phenyl)methyl)amino)-4-(((R)-1-phenylpropyl)amino) quinoline-3-carbonitrile]
13 |  |  |  | ≥ 1000 | 101 | [2H][C@@](Nc1cc(Cl)c2ncc(C#N)c(NCC(C)(C)C)c2c1)(c1cn(C2(C)CC2)nn1)c1c(F)cccc1Cl [Example 1047, (S)-8-chloro-6-(((2-chloro-6-fluorophenyl)(1-(1-methylcyclopropyl)-1H-1,2,3-triazol-4-yl)methyl-d)amino)-4-(neopentylamino)quinoline-3-carbonitrile]
14 |  |  |  | 73 | 6 | Cc1c([C@H](Nc2cc(Cl)c3ncc(C#N)c(NCC(C)(C)C)c3c2)c2cn(C3(C(F)(F)F)CC3)nn2)cccc1-n1ccnn1 [Example 1063, (S)-8-chloro-6-(((2-methyl-3-(1H-1,2,3-triazol-1-yl)phenyl)(1-(1-(trifluoromethyl)cyclopropyl)-1H-1,2,3-triazol-4-yl)methyl)amino)-4-(neopentylamino)quinoline-3-carbonitrile]
15 | 8830 |  | 3 |  |  | CC[C@@H](Nc1c(C#N)cnc2c(Cl)cc(N[C@@H](c3cccc(C(=O)N4CC(O)C4)c3)c3c[nH]nn3)cc12)c1ccccc1 [Example 560]
16 |  |  |  | 87 | 4 | Cc1c([C@H](Nc2cc(Cl)c3ncc(C#N)c(NCC(C)(C)C)c3c2)c2cn(C3(C(F)(F)F)CC3)nn2)cccc1-n1cncn1 [Example 1040, (S)-8-chloro-6-(((2-methyl-3-(1H-1,2,4-triazol-1-yl)phenyl)(1-(1-(trifluoromethyl)cyclopropyl)-1H-1,2,3-triazol-4-yl)methyl)amino)-4-(neopentylamino)quinoline-3-carbonitrile]
17 | 359 |  | 16 |  |  | N#Cc1cnc2c(Cl)cc(N[C@@H](c3ccccc3)c3cn([C@@H]4CCNC[C@@H]4F)nn3)cc2c1Nc1ccc(F)c(Cl)c1 [Example 685, 8-chloro-4-((3-chloro-4-fluorophenyl)amino)-6-(((S)-(1-((3S,4R)-3-fluoropiperidin-4-yl)-1H-1,2,3-triazol-4-yl)(phenyl)methyl)amino) quinoline-3-carbonitrile]
18 | 353 |  | 5 |  |  | CC(C)n1cc([C@@H](Nc2cc(Cl)c3ncc(C#N)c(Nc4ccc(F)c(Cl)c4)c3c2)c2cccc(NS(C)(=O)=O)c2)nn1 [Example 566, (S)-N-(3-(((8-chloro-4-((3-chloro-4-fluorophenyl)amino)-3-cyanoquinolin-6-yl)amino)(1-isopropyl-1H-1,2,3-triazol-4-yl)methyl)phenyl) methanesulfonamide]
